Data on one compound can be found in patent US20230158042A1, “COMBINATION CANCER THERAPY WITH PENTAAZA MACROCYCLIC RING COMPLEX AND HORMONE THERAPY AGENT” (Galera Labs, LLC, priority 2020, published 2023).

For one assay, the system named is MCF7-MnSOD^K68Q cells. Nature of the assay: Clonogenic cell survival in MCF7-MnSOD^K68Q cells. It is filed as cell-based, human. The settings on record: GC4419 10 µM alone. The method, then:
FIGS. 25a-25b show clonogenic cell survival studies in MCF7-MnSOD^K68Q cells exposed to either: Fulv at 100 nM (in FIG. 25a); or Palb at 0.5 µM (in FIG. 25b) using standard methods. […] Error bars are ± 1 SEM. Experiments in triplicate. *** p < 0.001.
(§1) Clonogenic cell survival assay. For the clonogenic survival analysis, exponentially growing cells were replated using appropriate dilutions, and clonogenic survival was evaluated after 14 days in regular growth medium. Cells were stained with crystal violet, and colonies of >50 cells were counted and utilized to calculate clonogenic survival^46.

In a further assay the test system is MCF7-HTR cells. The assay is described as follows: Clonogenic cell survival, hydroxy-Tam-resistant MCF7 cells with GC4419. It counts as cell-based, human. The settings on record: 5 µM GC4419 for 5 days; 1 µM hydroxy-Tam. The method, then:
as §1
To test parameters indicative of oxidative stress, a clonogenic assay with hydroxy-Tam and MnPAM dismutase mimetic treatments was performed. Cells were plated at a density of 50,000 cells per 60-mm dish and treated with 1 µM hydroxy-Tam (Sigma) and 5 µM GC4419 (Galera Therapeutics) for a total of 120 h. This protocol was repeated with a fresh medium change every 24 h for 5 days. On day 6, the cells were trypsinized, counted, and replated in control medium using appropriate dilutions, and clonogenic survival was evaluated.

Structures are written as SMILES.

Take `[Cl][Mn][Cl].c1cc2nc(c1)CN[C@H]1CCCC[C@@H]1NCCN[C@H]1CCCC[C@@H]1NC2` [GC4419]: the “cell growth (clonogenic)” value in the assay with MCF7-MnSOD^K68Q cells is given as “inhibited the growth of MnSOD^K68Q breast cancer cells”. The “hydroxy-Tam resistance (clonogenic cell survival)” value with MCF7-HTR cells is “became sensitive to hydroxy-Tam”.
